One may read the IC50 as the concentration that gives 50% inhibition. Read a low IC50 as greater potency in that assay.

Common to all, as to format: biochemical
Experiment [1] has as its target LRRK2 (human, G2019S mutant) (Homo sapiens, UniProt Q5S007, G2019S). The experiment can be described thus: TR-FRET kinase assay with PLK-peptide, […] h preincubation.
In experiment [2] the target is LRRK2 (human, wild-type) (Homo sapiens, UniProt Q5S007). The experiment is described as above.
The target of experiment [3] is LRRK2 (full-length, from BAC-transgenic mouse brain) (Mus musculus, UniProt Q5S006). The experiment can be described thus: TR-FRET kinase assay with PLK-peptide. On the technique in general: TR-FRET usually uses a lanthanide donor and a delayed reading to cut background.
LRRK2 (full-length, from BAC-transgenic mouse brain), sequence (Q5S006 whole entry): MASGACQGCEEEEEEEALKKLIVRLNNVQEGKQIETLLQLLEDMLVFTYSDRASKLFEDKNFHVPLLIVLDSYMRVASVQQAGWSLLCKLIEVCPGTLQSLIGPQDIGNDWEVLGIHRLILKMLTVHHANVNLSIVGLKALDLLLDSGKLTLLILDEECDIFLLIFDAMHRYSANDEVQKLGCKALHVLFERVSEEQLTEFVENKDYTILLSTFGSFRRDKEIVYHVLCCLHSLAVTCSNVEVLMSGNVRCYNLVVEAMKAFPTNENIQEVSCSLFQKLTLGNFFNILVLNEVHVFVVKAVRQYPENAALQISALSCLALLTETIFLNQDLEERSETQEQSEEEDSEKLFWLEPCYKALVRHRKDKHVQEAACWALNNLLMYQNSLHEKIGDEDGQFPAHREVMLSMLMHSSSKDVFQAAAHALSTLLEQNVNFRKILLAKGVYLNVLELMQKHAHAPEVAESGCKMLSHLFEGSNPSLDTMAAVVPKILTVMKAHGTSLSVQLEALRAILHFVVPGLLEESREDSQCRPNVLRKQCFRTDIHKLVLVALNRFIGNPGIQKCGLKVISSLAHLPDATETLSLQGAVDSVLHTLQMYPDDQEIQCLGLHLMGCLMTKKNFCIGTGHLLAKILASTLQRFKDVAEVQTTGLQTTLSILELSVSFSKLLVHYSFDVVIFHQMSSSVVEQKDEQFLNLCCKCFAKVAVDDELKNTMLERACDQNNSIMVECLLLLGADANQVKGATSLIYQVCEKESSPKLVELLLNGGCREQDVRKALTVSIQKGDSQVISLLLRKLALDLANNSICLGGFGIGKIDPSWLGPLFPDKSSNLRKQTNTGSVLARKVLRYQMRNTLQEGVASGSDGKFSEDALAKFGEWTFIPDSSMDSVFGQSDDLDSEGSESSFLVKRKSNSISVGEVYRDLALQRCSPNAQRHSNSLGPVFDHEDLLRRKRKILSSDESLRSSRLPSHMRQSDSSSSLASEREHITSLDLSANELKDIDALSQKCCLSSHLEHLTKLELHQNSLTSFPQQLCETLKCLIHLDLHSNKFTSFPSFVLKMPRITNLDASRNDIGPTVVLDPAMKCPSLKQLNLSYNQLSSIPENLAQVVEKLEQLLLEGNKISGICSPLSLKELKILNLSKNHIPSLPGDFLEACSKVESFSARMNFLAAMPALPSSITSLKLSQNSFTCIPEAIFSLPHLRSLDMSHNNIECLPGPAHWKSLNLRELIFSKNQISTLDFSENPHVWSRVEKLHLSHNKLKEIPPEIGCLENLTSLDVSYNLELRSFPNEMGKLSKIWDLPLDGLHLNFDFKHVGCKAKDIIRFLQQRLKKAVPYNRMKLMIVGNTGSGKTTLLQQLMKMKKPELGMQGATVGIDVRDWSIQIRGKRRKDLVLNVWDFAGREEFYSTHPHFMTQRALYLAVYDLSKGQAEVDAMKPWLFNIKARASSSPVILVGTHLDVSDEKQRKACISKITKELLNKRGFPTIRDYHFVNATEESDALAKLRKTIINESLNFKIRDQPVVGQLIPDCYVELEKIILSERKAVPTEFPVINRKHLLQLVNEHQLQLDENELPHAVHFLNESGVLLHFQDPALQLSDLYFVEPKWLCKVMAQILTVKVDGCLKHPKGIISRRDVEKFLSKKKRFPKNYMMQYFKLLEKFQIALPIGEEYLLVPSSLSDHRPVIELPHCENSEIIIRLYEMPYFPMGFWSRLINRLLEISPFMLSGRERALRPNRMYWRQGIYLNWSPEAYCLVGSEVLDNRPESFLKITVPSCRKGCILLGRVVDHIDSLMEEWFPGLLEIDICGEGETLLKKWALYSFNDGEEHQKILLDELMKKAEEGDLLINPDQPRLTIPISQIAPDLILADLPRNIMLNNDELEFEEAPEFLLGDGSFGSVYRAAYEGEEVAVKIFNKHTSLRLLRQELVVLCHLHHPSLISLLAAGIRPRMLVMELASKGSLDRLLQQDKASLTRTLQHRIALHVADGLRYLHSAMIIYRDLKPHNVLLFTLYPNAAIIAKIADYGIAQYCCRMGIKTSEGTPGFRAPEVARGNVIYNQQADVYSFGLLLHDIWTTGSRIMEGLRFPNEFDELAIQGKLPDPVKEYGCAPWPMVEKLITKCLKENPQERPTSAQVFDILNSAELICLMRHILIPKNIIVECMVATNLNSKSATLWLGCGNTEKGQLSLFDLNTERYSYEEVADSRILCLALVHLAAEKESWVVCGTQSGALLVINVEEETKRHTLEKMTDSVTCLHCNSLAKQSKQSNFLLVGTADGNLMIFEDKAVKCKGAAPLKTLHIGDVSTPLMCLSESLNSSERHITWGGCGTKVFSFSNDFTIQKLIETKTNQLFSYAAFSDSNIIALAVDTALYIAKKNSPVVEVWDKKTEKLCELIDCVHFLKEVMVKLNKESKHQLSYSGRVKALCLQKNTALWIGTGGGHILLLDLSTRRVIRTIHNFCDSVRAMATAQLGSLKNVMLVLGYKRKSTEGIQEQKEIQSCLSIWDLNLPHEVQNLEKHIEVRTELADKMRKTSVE

LRRK2 (human, G2019S mutant), sequence (Q5S007 970-2527 G2019S): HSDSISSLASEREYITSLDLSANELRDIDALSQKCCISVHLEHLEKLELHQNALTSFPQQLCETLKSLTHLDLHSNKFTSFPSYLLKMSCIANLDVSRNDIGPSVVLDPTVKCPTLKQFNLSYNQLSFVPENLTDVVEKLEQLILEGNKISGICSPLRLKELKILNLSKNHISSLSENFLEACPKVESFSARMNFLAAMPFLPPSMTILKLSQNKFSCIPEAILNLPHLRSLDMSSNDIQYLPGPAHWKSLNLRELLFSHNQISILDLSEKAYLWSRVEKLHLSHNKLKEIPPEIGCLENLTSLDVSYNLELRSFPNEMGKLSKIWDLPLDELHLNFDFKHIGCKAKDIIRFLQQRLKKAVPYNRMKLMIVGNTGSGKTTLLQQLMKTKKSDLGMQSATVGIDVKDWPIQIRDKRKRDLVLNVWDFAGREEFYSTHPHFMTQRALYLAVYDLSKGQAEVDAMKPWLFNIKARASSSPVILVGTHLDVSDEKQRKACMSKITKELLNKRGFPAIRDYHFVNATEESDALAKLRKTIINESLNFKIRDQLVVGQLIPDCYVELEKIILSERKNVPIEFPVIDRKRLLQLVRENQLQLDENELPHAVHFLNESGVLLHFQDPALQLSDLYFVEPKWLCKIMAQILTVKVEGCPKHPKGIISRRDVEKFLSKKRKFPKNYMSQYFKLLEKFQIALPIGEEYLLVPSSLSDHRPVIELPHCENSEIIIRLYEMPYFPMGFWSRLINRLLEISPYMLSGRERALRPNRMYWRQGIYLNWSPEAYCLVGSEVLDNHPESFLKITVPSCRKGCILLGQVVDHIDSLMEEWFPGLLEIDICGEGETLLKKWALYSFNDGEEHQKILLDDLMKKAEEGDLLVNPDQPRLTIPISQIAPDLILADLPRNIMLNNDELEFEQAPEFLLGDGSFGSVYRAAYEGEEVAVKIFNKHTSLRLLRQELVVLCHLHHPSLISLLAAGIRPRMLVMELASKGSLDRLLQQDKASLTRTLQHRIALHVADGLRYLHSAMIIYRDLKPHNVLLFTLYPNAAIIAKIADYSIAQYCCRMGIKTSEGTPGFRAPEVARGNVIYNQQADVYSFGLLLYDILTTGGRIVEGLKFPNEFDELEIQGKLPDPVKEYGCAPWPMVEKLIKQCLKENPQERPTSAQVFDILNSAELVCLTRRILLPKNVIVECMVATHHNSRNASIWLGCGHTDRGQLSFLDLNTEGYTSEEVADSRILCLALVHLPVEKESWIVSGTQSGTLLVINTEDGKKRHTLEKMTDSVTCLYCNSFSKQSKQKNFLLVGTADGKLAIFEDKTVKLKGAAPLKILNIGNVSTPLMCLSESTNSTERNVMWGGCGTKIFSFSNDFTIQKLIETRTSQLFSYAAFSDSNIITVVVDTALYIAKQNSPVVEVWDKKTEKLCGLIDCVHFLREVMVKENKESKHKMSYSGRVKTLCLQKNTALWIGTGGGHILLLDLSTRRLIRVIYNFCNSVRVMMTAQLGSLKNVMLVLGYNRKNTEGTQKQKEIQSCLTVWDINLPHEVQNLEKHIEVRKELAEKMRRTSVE
LRRK2 (human, wild-type), sequence (Q5S007 970-2527): as the sequence (Q5S007 970-2527 G2019S) above, with S1050G counted along it

As for LDN-22684, the IC50 in experiment [1] worked out at 6.9 ± 1 µM; in experiment [2], 6.1 ± 0.8 µM; in experiment [3] it was 5.4 ± 0.8 µM.

Source of the values: publication PMC2921631 (Analytical biochemistry, 2010).
